Structures can show the parent of a compound that is named as a salt.
Legend:
Colo205 tumor cells = assay: Method C: Cell Growth Inhibition Assay (CellTiter-Glo), Colo205; assay type: cell-based; conditions: Homo sapiens, COLO 205, 72 h, 3 days, 4-parameter fit
Protocol: (§1) Human breast tumor cells (BT474) were cultured in RPMI (Mediatech 50-011-PB), containing 10% FBS (JRH Biosciences 12176) and 1% penicillin-streptomycin (Invitrogen 15140). Human head and neck tumor cells (HN5) were cultured in high glucose DMEM (Mediatech 50-013-PB) containing 10% FBS and 1% penicillin-streptomycin. Human colon tumor cells (Colo205) were cultured in RPMI (Mediatech 50-020-PB) containing 10% FBS and 1% penicillin-streptomycin. Human melanoma cancer cells (SK-MEL-28) were cultured in EMEM with nonessential amino acids (Mediatech 50-011-PB) containing 10% FBS, 1% sodium pyruvate (JT Baker 3354-04), and 1% penicillin-streptomycin. Human melanoma cancer cells (A375P F11s) were cultured in RPMI (Mediatech 50-020-PB) containing 10% FBS, 1% sodium pyruvate, and 1% penicillin-streptomycin. Human colon cancer cells (HT-29) were cultured in high glucose DMEM (Mediatech 50-013-PB) containing 10% FBS and 1% penicillin-streptomycin. Human melanoma cancer cells (SK-MEL-3) were cultured in McCoy's 5A (50-025-PB) containing 15% FBS, and 1% penicillin-streptomycin. All cell lines were maintained at 37° C. in a humidified 5% CO2, 95% air incubator. Cells were harvested using trypsin/EDTA (Invitrogen 25200), counted using an haemocytometer, and plated. For 96-well assays (using white full-area NUNC plates cat. #136102), cells were plated in 105 μL at the following densities (cells/well): HN5, 500; Colo205, 500; SK-MEL-28, 500; A375P-F11s, 500; HT-29, 500; SK-MEL-3, 500; and BT474, 3000. For 384-well assays (white full-area NUNC plates, cat. #781080), cells were plated in 48 μL at the following densities (cells/well): HN5, 500; Colo205, 500; SK-MEL-28, 500; A375P-F11s, 500; HT29, 500; SK-MEL-3, 500; and BT474, 2000.
(§2) The next day, compounds were diluted as follow: For 96-well assays, 13.5 μL of compound in DMSO were diluted using nine (9) serial 1:3 dilutions of 4.5 μL in 9 μL of DMSO. Medium (270 μl/well of RPMI with 10% FBS and 1% penicillin-streptomycin) was added to the plates. Aliquots (7 μl) were added to cells in the final assay giving a final DMSO concentration of 0.2%. For 384-well assays, 15 μL of compound in DMSO were diluted using nine (9) serial 1:3 dilutions of 5 μL in 10 μL of DMSO, followed by a further dilution of 5 μL of compound with 95 μL of medium, of which 2 μL were added to cells in the final assay giving a final DMSO concentration of 0.2%. Cells were incubated at 37° C., 5% CO2 for 3 days.
(§3) Total ATP was measured (as a surrogate estimate of cell number) using CellTiter-Glo® reagent (Promega G7571). Briefly, plates were removed from the incubator and allowed to equilibrate to room temperature for 30 minutes. CellTiter-Glo® (25 μL or 55 μL for 384-well or 96-well assays, respectively) reagent was added to each well and plates were shaken on an orbital plate shaker for 2 mins. Plates were incubated without shaking for a further 30 mins and read on an LJL Analyst GT reader in luminometer mode with an integration time of 0.5 seconds per well. Percent inhibition of cell growth was calculated relative to DMSO vehicle-treated control wells. Concentration of compound required to give 50% inhibition of vehicle-treated control cell growth (IC50) was interpolated using a 4-parameter fit for determining IC50 using the following equation: Y=A+((B−A)/(1+((C/X)̂D))) where X=IC50.

EGFR = biological target: T1, EGFR (Homo sapiens, UniProt P00533); assay: EGFR substrate phosphorylation assay (HTRF); assay type: biochemical; conditions: Method (A): Enzyme Mix incubated with compound at 20° C. for 1 hr, reaction started by adding Substrate Mix
T1 construct: made in house; host or cells: baculovirus expression system
T1 sequence (P00533 25-1210): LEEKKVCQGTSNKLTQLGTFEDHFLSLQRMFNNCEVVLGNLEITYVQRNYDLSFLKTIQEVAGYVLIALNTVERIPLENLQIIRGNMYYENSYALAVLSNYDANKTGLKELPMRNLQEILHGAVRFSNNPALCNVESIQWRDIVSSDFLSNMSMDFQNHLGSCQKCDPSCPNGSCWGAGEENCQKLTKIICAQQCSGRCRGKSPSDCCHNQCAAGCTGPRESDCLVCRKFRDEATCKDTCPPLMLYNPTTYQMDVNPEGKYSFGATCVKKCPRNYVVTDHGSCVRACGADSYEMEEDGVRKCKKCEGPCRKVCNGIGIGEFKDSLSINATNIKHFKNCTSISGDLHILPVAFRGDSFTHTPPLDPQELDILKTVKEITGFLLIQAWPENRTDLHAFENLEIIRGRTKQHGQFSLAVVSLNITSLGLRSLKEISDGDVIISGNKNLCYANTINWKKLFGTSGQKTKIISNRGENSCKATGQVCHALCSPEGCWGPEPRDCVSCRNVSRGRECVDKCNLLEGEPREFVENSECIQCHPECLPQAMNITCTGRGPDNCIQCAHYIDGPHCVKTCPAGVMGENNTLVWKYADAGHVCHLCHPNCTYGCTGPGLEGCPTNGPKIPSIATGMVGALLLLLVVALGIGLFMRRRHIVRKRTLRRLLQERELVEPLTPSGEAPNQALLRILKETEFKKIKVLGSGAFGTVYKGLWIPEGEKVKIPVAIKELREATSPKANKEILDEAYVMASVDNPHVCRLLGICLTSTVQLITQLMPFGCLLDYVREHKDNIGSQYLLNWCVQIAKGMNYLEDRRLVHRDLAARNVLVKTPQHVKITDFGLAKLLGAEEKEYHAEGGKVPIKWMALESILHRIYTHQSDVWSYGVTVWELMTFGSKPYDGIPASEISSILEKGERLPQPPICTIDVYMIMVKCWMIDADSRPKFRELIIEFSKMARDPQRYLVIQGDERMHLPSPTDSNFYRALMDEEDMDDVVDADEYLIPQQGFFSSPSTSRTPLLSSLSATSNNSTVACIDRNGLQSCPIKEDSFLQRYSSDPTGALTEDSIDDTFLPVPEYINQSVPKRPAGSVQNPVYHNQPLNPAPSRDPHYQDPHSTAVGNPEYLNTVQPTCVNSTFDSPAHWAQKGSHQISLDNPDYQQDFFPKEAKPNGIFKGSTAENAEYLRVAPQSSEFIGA
Protocol: (§4) Compounds of the present invention were tested for EGFR and ErbB-2 protein tyrosine kinase inhibitory activity in substrate phosphorylation assays using enzymes purified from a baculovirus expression system. Reagent production was conducted essentially as described in Brignola, P. S., et al., (2002) J. Biol. Chem. 277(2):1576-1585.
(§5) The method measures the ability of the isolated enzyme to catalyse the transfer of the gamma-phosphate from ATP onto the tyrosine residue of a biotinylated synthetic peptide referenced “Peptide C” in Brignola, P. S., et al., (2002) J. Biol. Chem. 277(2):1576-1585. The extent of tyrosine phosphorylation was measured using an anti-phosphotyrosine antibody, and quantified by homogenous time-resolved fluorescence (HTRF).
(§6) Reactions were performed in black 384-well polystyrene flat-bottom plates in a final volume of 20 μl. Assays were performed by adding 10 μl of each of the following solutions, Substrate Mix and Enzyme Mix: The Substrate Mix contained 100 mM 3-[N-morpholino]propanesulfonic acid (MOPS) (pH 7.5), 2 mM MnCl2, 20 μM ATP, 0.01% Tween-20, 0.1 mg/mL (BSA), 0.8 uM peptide substrate, and 1 mM dithiothreitol. The Enzyme Mix contained 100 mM MOPS (pH 7.5); 0.01% Tween-20; 0.1 mg/mL BSA, and either 0.8 nM EGFR, 10 nM ErbB2, or 1 nM ErbB4
(§7) During the course of these studies, two separate methods have been used to measure the potency of compounds. In Method A (indicated as “(A)” in the tables below), the Enzyme Mix was added to the compound plates and the plates were incubated at 20° C. for 1 hr. The reactions were then started by adding the Substrate Mix. In Method B (indicated as “(B)” in the tables below), the Substrate Mix was added to the compound plates first, then the reaction was started by adding the Enzyme Mix.
(§8) After initiating the reaction with either method describe above, the reactions were allowed to proceed for 90 minutes at 20° C. The reactions were then terminated by the addition of 20 μL 100 mM EDTA to each well. 40 μL/well of HTRF detection mix were added to the assay plates. The final concentrations of the detection reagents were: 100 mM HEPES (pH7.5), 0.1 mg/mL BSA, 15 nM streptavidin-labeled allophycocyanin (PerkinElmer), and 1 nM europium-labeled anti-phosphotyrosine antibody (PerkinElmer). Assay plates were left unsealed and were counted in a Wallac Multilabel Counter 1420 (PerkinElmer).
(§9) Compounds under analysis were dissolved in dimethylsulfoxide (DMSO) to 1.0 mM and serially diluted 1 to 3 with DMSO through twelve dilutions. 1 μL of each concentration was transferred to the corresponding well of an assay plate. This creates a final compound concentration range from 0.00027 to 47.6 μM.
(§10) The data for dose responses were plotted as % Inhibition calculated with the data reduction formula 100*(1−(U1−C2)/(C1−C2)) versus concentration of compound where U1 is the unknown value, C1 is the average control value obtained for 4.76% DMSO, and C2 is the average control value obtained for 0.035 M EDTA. Data were fitted with a curve described by:
(§11) where Vmax is the upper asymptote, Y2 is the Y intercept, and K is the IC50. The results for each compound were recorded as pIC50s, calculated as follows: […]

HN5 tumor cells = assay: Method C: Cell Growth Inhibition Assay (CellTiter-Glo), HN5; assay type: cell-based; conditions: Homo sapiens, 72 h, 3 days, 4-parameter fit
Protocol: as §1, §2, §3

ErbB2 = biological target: T2, ErbB2 (Homo sapiens, UniProt P04626); assay: ErbB-2 substrate phosphorylation assay (HTRF); assay type: biochemical; conditions: Method (A): Enzyme Mix incubated with compound at 20° C. for 1 hr, reaction started by adding Substrate Mix
T2 construct: made in house; host or cells: baculovirus expression system
T2 sequence (P04626 23-1255): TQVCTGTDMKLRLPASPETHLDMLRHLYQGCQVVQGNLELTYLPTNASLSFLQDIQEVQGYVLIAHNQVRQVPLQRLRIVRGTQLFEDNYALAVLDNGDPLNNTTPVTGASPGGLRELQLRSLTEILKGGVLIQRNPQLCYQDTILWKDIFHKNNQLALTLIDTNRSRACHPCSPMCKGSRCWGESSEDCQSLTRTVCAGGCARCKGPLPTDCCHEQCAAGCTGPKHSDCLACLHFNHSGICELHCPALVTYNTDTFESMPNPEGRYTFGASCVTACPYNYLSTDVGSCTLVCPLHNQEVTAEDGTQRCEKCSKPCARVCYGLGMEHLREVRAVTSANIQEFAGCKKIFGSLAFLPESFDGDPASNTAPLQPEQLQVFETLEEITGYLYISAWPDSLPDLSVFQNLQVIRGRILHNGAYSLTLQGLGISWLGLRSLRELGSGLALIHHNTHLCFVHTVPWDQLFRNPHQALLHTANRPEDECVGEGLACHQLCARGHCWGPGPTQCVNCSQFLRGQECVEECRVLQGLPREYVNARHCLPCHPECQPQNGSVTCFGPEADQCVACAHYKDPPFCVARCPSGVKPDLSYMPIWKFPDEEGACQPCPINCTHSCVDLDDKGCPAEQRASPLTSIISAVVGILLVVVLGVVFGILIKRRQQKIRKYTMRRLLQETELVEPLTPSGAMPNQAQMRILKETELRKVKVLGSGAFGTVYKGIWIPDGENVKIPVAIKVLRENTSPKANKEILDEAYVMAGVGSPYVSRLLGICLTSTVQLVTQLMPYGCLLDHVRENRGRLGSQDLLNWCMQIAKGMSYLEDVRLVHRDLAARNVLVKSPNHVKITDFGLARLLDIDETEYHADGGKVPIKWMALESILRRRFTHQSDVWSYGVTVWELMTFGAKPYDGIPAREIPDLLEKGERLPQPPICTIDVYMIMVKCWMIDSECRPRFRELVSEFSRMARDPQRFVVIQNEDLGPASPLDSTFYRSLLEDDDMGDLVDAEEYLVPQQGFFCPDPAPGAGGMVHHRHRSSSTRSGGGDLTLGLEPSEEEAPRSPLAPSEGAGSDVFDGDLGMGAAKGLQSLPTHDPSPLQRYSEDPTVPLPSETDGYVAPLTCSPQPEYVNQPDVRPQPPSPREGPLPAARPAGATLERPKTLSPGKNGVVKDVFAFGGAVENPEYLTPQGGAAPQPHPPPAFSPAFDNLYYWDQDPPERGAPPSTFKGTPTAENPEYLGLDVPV
Protocol: as §4, §5, §6, §7, §8, §9, §10, §11

BT474 tumor cells = assay: Method C: Cell Growth Inhibition Assay (CellTiter-Glo), BT474; assay type: cell-based; conditions: Homo sapiens, BT-474, 72 h, 3 days, 4-parameter fit
Protocol: as §1, §2, §3

SK-MEL-28 tumor cells = assay: Method C: Cell Growth Inhibition Assay (CellTiter-Glo), SK-MEL-28; assay type: cell-based; conditions: Homo sapiens, SK-MEL-28, 72 h, 3 days, 4-parameter fit
Protocol: as §1, §2, §3

Compound	IC50 (Colo205 tumor cells) [nM]	IC50 (EGFR) [nM]	IC50 (HN5 tumor cells) [nM]	IC50 (ErbB2) [nM]	IC50 (BT474 tumor cells) [nM]	IC50 (SK-MEL-28 tumor cells) [nM]
NS(=O)(=O)CCc1cccc(Nc2nccc(-c3scnc3-c3cccc(NC(=O)c4cc(F)ccc4F)c3)n2)c1 [Example 100, N-(3-{5-[2-({3-[2-(Aminosulfonyl)ethyl]phenyl}amino)-4-pyrimidinyl]-1,3-thiazol-4-yl}phenyl)-2,5-difluorobenzamide trifluoroacetate]	100 to 1000	< 100	< 100	< 100	< 100	
CN(C)CCOc1ccc(Nc2nccc(-c3sc(-c4ccc(O)cc4)nc3-c3cccc(NC(=O)c4c(F)cccc4F)c3)n2)cc1Cl [Example 139, N-{3-[5-{2-[(3-Chloro-4-{[2-(dimethylamino)ethyl]oxy}phenyl)amino]-4-pyrimidinyl}-2-(4-hydroxyphenyl)-1,3-thiazol-4-yl]phenyl}-2,6-difluorobenzamide]	100 to 1000	< 100	100 to 1000	< 100	100 to 1000	
CN(C)CCOc1cccc(Nc2nccc(-c3scnc3-c3cccc(NC(=O)c4cc(F)ccc4F)c3)n2)c1 [Example 96, N-[3-(5-{2-[(3-{[2-(Dimethylamino)ethyl]oxy}phenyl)amino]-4-pyrimidinyl}-1,3-thiazol-4-yl)phenyl]-2,5-difluorobenzamide]	> 1000	< 100	< 100	< 100	100 to 1000	> 1000
CN(C)CCOc1ccc(Nc2nccc(-c3sc(-c4ccc(O)cc4)nc3-c3cccc(NC(=O)c4cc(F)ccc4F)c3)n2)cc1Cl [Example 140, N-{3-[5-{2-[(3-Chloro-4-{[2-(dimethylamino)ethyl]oxy}phenyl)amino]-4-pyrimidinyl}-2-(4-hydroxyphenyl)-1,3-thiazol-4-yl]phenyl}-2,5-difluorobenzamide]	100 to 1000	< 100	100 to 1000	< 100	100 to 1000	100 to 1000
CCN(CC)CCOc1cccc(Nc2nccc(-c3scnc3-c3cccc(NC(=O)c4cc(F)ccc4F)c3)n2)c1 [Example 97, N-[3-(5-{2-[(3-{[2-(Diethylamino)ethyl]oxy}phenyl)amino]-4-pyrimidinyl}-1,3-thiazol-4-yl)phenyl]-2,5-difluorobenzamide]	> 1000	< 100	100 to 1000	< 100	100 to 1000	> 1000
Cc1nc(-c2cccc(NC(=O)c3c(F)cccc3F)c2)c(-c2ccnc(Nc3cccc(OCCN(C)C)c3)n2)s1 [Example 102, N-[3-(5-{2-[(3-{[2-(Dimethylamino)ethyl]oxy}phenyl)amino]-4-pyrimidinyl}-2-methyl-1,3-thiazol-4-yl)phenyl]-2,6-difluorobenzamide]	> 1000	< 100	100 to 1000	< 100	100 to 1000	
CN(C)CCOc1cccc(Nc2nccc(-c3sc(N)nc3-c3cccc(C(=O)Nc4c(F)cccc4F)c3)n2)c1 [Example 76, 3-(2-Amino-5-{2-[(3-{[2-(dimethylamino)ethyl]oxy}phenyl)amino]-4-pyrimidinyl}-1,3-thiazol-4-yl)-N-(2,6-difluorophenyl)benzamide]	100 to 1000	< 100	100 to 1000	< 100	< 100	
Cc1nc(-c2cccc(NC(=O)c3cccnc3F)c2)c(-c2ccnc(Nc3ccc4c(c3)CN(C)CC4)n2)s1 [Example 137, 2-Fluoro-N-[3-(2-methyl-5-{2-[(2-methyl-1,2,3,4-tetrahydro-7-isoquinolinyl)amino]-4-pyrimidinyl}-1,3-thiazol-4-yl)phenyl]-3-pyridinecarboxamide trifluoroacetate]	> 1000	< 100		< 100	100 to 1000	> 1000
CC(C)c1nc(-c2cccc(NC(=O)c3c(F)cccc3F)c2)c(-c2ccnc(Nc3cccc(OCCN(C)C)c3)n2)s1 [Example 122]	> 1000	< 100		< 100	100 to 1000	> 1000
Cc1cccc(C(=O)Nc2cccc(-c3nc(C)sc3-c3ccnc(Nc4ccc(OCCN(C)C)c(Cl)c4)n3)c2)c1 [Example 135, N-[3-(5-{2-[(3-Chloro-4-{[2-(dimethylamino)ethyl]oxy}phenyl)amino]-4-pyrimidinyl}-2-methyl-1,3-thiazol-4-yl)phenyl]-3-methylbenzamide]	> 1000	< 100		< 100	100 to 1000	> 1000
